Like-named read-outs stand apart in the source and are kept apart here.
Legend:
[1] = test system: 5-dpf zebrafish challenged with K. Pneumoniae LPS (45 μg/mL); experiment: Challenge with K. Pneumoniae LPS (45 μg/mL), 5-dpf zebrafish; type: in vivo, Danio rerio
Description: These tests followed the same methods described in the 5-dpf zebrafish confirmatory testing, but K. Pneumoniae LPS (45 μg/mL final in well concentration) was used instead of P. aeruginosa LPS.

[2] = test system: 5-dpf zebrafish larvae challenged with P. aeruginosa LPS 60 μg/mL; type: in vivo, Danio rerio; settings: compound 10 μM; for 5 dpf Embryos Percent Rescue (Mort + Tail Edema): 5-dpf larvae
[3] = test system: 3-dpf Zebrafish Embryos Challenged with LPS (P. aeruginosa 60 μg/mL); type: in vivo, Danio rerio; settings: P. aeruginosa LPS 60 μg/mL, compound 10 μM; for Percent Rescue (Mort + Tail Edema): 3-dpf embryos, n=16; for Percent Rescue (Mort + Tail Edema) / rescue of tail edema and mortality (sepsis rescue rate) at 3-dpf: 24 hours; for 3 dpf Embryos Percent Rescue (Mort + Tail Edema): initial 3-dpf screen shown for reference
Outline: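 3-dpf PTU-treated AB zebrafish embryos exposed to 60 μg/mL P. aeruginosa LPS plus 10 μM compound (final) at 28.5 °C, n=16 per compound. Tail edema and mortality scored at 6 and 24 h post exposure; rescue judged against LPS-only controls at 24 h.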

[4] = test system: zebrafish (4 dpf pre-treated, LPS exposure at 5-dpf) challenged with P. aeruginosa LPS 60 μg/mL; type: in vivo, Danio rerio; settings: for Pre-Treatment Rescue (n = 16): 24-hour drug pre-treatment; for Pre-Treatment Rescue (n = 16) / No Pre-Treatment Rescue (n = 16): P. aeruginosa LPS 60 μg/mL; for No Pre-Treatment Rescue (n = 16): no 24-hour drug pre-treatment; for 24 hour Tail Edema, No-Drug Pretreatment / 24 Hour Mortality and Tail Edema, Drug Pretreatment / 24 Hour Mortality, Drug Pretreatment / 24 hour Tail Edema, Drug Pretreatment / 24 Hour Mortality and Tail Edema, No-Drug Pretreatment / 24 Hour Mortality, No Drug Pretreatment: number of n = 16 fish; for 24 hour Tail Edema, No-Drug Pretreatment: 10 μM drug with LPS 60 μg/mL; for 24 hour Tail Edema, No-Drug Pretreatment / 24 Hour Mortality and Tail Edema, No-Drug Pretreatment / 24 Hour Mortality, No Drug Pretreatment: no 24-hour pre-treatment; for 24 Hour Mortality and Tail Edema, Drug Pretreatment / 24 Hour Mortality, Drug Pretreatment: 24-hour 10 μM drug pre-treatment; for 24 hour Tail Edema, Drug Pretreatment: 24-hour 10 μM drug pre-treatment before LPS 60 μg/mL
Outline: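 PTU-treated 4 dpf zebrafish embryos received a 24-hour drug pre-treatment at 28.5 °C, alongside an untreated parallel group, before challenge at 5 dpf with P. aeruginosa LPS at 60 μg/mL. Tail edema and mortality were scored at 6 and 24 h post exposure, followed by a neurobehavioral test.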

[5] = molecular target: hERG potassium ion channel current (IhERG) (Homo sapiens, UniProt Q12809); settings: cited from earlier work
Chain of hERG potassium ion channel current (IhERG) (Q12809 whole entry): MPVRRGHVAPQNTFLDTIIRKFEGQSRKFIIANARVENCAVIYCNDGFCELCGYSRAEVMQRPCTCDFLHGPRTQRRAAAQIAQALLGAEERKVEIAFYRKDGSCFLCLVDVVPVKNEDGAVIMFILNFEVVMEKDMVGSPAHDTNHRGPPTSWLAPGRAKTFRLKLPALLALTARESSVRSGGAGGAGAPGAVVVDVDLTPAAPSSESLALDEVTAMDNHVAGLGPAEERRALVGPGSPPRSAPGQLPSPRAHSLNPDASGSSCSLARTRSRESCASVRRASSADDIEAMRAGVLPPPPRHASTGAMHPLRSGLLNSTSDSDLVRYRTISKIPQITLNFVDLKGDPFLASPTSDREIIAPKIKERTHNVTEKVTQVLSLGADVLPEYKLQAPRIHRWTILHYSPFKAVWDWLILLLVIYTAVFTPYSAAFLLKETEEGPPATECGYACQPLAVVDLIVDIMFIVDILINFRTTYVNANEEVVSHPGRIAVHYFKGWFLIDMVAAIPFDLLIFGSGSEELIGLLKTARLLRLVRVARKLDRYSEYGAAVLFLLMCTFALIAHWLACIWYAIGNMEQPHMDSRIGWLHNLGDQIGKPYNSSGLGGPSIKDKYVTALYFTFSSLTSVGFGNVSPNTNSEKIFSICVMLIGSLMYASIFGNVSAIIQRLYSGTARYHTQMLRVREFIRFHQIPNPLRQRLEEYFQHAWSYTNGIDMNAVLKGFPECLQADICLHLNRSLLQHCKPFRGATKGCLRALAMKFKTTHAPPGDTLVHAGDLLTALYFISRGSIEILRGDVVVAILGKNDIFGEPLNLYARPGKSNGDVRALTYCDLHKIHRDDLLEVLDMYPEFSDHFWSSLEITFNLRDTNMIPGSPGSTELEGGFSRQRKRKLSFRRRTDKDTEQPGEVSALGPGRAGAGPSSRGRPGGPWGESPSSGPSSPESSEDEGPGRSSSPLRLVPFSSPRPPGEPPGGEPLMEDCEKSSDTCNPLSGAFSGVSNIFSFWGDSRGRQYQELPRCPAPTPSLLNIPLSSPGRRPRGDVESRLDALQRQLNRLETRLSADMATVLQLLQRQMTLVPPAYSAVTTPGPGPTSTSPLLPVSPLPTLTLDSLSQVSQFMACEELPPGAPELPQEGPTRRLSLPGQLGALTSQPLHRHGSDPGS

human recombinant 5-HT2A = human recombinant 5-HT2A (Homo sapiens, UniProt P28223); settings: cited from earlier work
Chain of human recombinant 5-HT2A (P28223 whole entry): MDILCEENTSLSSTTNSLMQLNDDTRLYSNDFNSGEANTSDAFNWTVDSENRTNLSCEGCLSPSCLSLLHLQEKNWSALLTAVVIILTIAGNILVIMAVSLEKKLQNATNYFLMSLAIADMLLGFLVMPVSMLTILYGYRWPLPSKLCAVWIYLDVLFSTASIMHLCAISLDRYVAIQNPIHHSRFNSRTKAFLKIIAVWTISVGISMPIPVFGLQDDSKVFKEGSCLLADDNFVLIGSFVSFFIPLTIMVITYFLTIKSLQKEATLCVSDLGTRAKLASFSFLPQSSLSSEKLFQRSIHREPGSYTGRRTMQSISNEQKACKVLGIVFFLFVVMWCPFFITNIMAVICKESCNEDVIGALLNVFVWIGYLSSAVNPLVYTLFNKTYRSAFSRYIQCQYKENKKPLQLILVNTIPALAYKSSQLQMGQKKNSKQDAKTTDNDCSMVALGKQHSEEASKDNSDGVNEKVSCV

human recombinant 5-HT2C = molecular target: T1, human recombinant 5-HT2C (Homo sapiens, UniProt P28335); settings: cited from earlier work
T1 sequence (P28335 33-458): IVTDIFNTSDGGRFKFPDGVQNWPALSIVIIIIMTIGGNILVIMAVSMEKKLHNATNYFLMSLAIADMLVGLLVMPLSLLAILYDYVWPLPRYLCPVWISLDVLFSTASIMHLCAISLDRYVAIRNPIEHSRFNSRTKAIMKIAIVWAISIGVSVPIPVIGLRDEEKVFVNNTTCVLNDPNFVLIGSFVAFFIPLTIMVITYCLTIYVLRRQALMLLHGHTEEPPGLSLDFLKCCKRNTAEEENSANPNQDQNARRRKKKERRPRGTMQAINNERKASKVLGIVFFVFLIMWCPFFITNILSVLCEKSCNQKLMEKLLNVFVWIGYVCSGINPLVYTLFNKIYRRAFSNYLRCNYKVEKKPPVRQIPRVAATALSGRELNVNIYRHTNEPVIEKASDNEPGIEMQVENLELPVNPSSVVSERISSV

[6] = test system: larval zebrafish locomotor behavior; type: in vivo
Description: This assay is a modified version of the larval zebrafish light dark transition assay with an added UV light (wavelength=295 nm) phase to capture any compound specific neurological effects to UV light. (Basnet et al., 2019, Kokel et al., 2013, Peng et al., 2016). The light period assesses deviations from normal locomotor behavior while the rapid transition to dark provides a measure of stress response by identifying any deviations from the normal heightened locomotor activity caused by the transition to dark. The neurobehavioral assay used a custom trial control script created by Noldus Ethovision XT 15, and it was executed in a Noldus DanioVision system. Zebrafish larvae in microplates were allowed to habituate in the DanioVision system for 5 minutes under white light conditions prior to the start of the test. The neurobehavioral assay consisted of three phases: a 3-minute light phase (white light), a 3-minute dark phase (no light) and a 5 second UV phase (UV light only). The Danio Vision system captured larval zebrafish movement throughout this assay at 30 frames per second.
LC50s for the LPS tests were determined using the Trimmed Spearmen-Karber method (Hamilton et al., 1977). The tail edema and mortality data from the initial and confirmatory drug testing was analyzed using GraphPad Prism 9 using Fisher's Exact Test. Each drug treatment group was compared pairwise with the on-board positive control group on each test plate. Statistical significance was determined with values of p≤0.05. Neurological behavioral testing data was analyzed by Ethovision software that produced an activity analysis profile per frame for each well of the 96 well plates. Any dead embryos were removed from the data set, and the remaining data set was imported into Excel. The offset function in Excel was used to average the percentage of pixel change per 0.1 s for each plate. […] The behavioral data was then statistically analyzed by drug per phase using a 2 tailed t-test to determine statistical significance p≤0.01.

5-HT2B = 5-HT2B (Homo sapiens, UniProt P41595); settings: cited from earlier work
Chain of 5-HT2B (P41595 whole entry): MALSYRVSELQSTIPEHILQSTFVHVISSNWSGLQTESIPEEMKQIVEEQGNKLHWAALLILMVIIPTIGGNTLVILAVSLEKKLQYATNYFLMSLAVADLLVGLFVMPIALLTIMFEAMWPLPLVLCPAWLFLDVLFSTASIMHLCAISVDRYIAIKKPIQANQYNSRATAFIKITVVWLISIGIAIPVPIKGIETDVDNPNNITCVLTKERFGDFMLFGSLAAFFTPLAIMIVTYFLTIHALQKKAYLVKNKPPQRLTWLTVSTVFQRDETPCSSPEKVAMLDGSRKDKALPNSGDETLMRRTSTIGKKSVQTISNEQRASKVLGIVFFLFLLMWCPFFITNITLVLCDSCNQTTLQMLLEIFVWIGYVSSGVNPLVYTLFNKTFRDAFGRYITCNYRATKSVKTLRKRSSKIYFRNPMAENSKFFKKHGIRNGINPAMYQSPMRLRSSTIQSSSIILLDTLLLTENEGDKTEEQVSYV

D2 receptor = D2 receptor (Homo sapiens, UniProt P14416); settings: read-out: IC50 for D2 receptor; cited from earlier work
Chain of D2 receptor (P14416 whole entry): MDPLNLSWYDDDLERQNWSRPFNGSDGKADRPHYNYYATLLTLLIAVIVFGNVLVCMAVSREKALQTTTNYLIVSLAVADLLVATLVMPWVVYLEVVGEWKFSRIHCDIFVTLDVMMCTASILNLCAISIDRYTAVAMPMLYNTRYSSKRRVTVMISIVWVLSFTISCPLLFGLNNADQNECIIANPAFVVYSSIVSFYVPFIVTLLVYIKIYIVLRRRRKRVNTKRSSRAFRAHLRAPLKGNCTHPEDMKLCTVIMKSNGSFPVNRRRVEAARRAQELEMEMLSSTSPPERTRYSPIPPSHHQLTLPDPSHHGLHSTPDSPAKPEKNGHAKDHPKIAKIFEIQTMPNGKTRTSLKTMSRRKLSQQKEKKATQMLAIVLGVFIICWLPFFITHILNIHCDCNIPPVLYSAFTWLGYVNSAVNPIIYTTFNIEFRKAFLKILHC

SMILES | rescue of tail edema and mortality [1] [%] | 5 dpf Embryos Percent Rescue (Mort + Tail Edema) [2] [%] | rescue of tail edema and mortality (sepsis rescue rate) at 5-dpf [2] [%] | Percent Rescue (Mort + Tail Edema) [3] [%] | rescue of tail edema and mortality (sepsis rescue rate) at 3-dpf [3] [%] | 3 dpf Embryos Percent Rescue (Mort + Tail Edema) [3] [%] | Pre-Treatment Rescue (n = 16) [4] [%] | No Pre-Treatment Rescue (n = 16) [4] [%] | 24 hour Tail Edema, No-Drug Pretreatment [4] [fish] | 24 Hour Mortality and Tail Edema, Drug Pretreatment [4] [fish] | 24 Hour Mortality, Drug Pretreatment [4] [fish] | 24 hour Tail Edema, Drug Pretreatment [4] [fish] | 24 Hour Mortality and Tail Edema, No-Drug Pretreatment [4] [fish] | 24 Hour Mortality, No Drug Pretreatment [4] [fish] | also measured
O=C(c1ccc(F)cc1)C1CCN(CCn2c(=O)[nH]c3ccccc3c2=O)CC1 [Compound 88, Ketanserin] | 88 | 81 | 81 | 100 | 100 | 100 | 100 | 100 | 0 | 0 | 0 | 0 | 0 | 0 | rescue of tail edema and mortality (sepsis rescue rate) at 5-dpf ([2]; listed as ketanserin): 100%; IC50 [5]: 110 nM
CCCCCNC(=N)N/N=C/c1c[nH]c2ccc(OC)cc12 [Compound 400, Tegaserod (maleate)] | 100 | 100 | 100 | 100 | 100 | 100 | 100 | 88 | 1 | 0 | 0 | 0 | 2 | 1 | pKi 5-HT2A (human recombinant 5-HT2A): 7.5; pKi 5-HT2C (human recombinant 5-HT2C): 7.0; light/dark neurobehavioral testing, difference from negative controls ([6]; after LPS exposure, with and without drug pre-treatment): little to no difference from negative controls; Post Test Behavioral Assay ([6]; after pre-treatment test LPS exposure): Normal; pKi 5-HT2B (5-HT2B): 8.4
CN1CCN(CCCN2c3ccccc3Sc3ccc(C(F)(F)F)cc32)CC1 [Trifluoperazine] | – | – | – | – | – | – | – | – | – | – | – | – | – | – | IC50 (D2 receptor): 1.2 nM

Reference: patent US20250085273A1, “NOVEL RAPID DRUG DISCOVERY FOR SEPSIS AND AGENTS FOR USE AS SEPSIS THERAPY” (priority 2023, published 2025)
